Experimental findings from US20250161281A1, “EMOPAMIL-BINDING PROTEIN INHIBITORS AND USES THEREOF” (BIOGEN MA INC., priority 2022, published 2025) are described below.

T1 sequence (Q15125 whole entry): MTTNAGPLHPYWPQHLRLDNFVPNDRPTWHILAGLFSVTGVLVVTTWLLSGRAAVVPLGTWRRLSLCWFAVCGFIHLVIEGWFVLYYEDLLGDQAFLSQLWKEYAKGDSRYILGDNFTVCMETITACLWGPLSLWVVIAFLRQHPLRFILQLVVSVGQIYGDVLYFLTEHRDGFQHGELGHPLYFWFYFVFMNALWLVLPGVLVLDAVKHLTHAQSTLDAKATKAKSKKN

This experiment has as its target T1, EBP (Homo sapiens, UniProt Q15125).
T1 construct: HEK293T cells were utilized as the source of EBP enzyme; endogenous in cells; host or cells: HEK293T
Kind of experiment: EBP Functional Assay (EBP immunoaffinity LC-MS assay). To be noted: HEK293T cells as source of EBP enzyme; 30 min with inhibitor, then zymosterol-d5, 37° C. for 4 h; percent conversion by LC-APCI MRM MS. In kind it is biochemical. On the procedure:
The EBP immunoaffinity (IA) LC-MS assay measures the potency of small molecule inhibitors of EBP by quantifying their concentration-dependent changes in the enzyme's substrate and product using liquid chromatography atmospheric pressure chemical ionization multiple reaction monitoring mass spectrometry (LC-APCI MRM MS). HEK293T cells were utilized as the source of EBP enzyme. The enzyme was incubated with the small molecule inhibitors at variable concentrations for 30 min. Deuterated form of EBP substrate, zymosterol-d5 (Avanti Polar Lipids, Cat #700068P-1 mg), was then added and the plate was incubated at 37° C. for 4 h. Finally, the sterol isomers were extracted and injected to LC-APCI MRM MS. MRM transition used for the quantification for both zymosterol and dihydrolathosterol (substrate and product of EBP enzymatic reaction, respectively) is 372.3-203.2, CE 30 and DP 80 in positive ion mode. Percent conversion of the zymosterol-d5 to dehydrolathosterol-d5 was used to derive IC50 curves. Tasin-1 (1′-[(4-Methoxyphenyl)sulfonyl]-4-methyl-1,4′-bipiperidine, CAS 792927-06-1) was used as the reference small molecule inhibitor. Percent conversion versus the compound concentration data were fit to the following 4-parameter logistic model to generate IC50 curves: […]
Molecule `CC1(CNC2C[C@H]3CC[C@@H](C2)N3S(=O)(=O)c2ccc(OC(F)F)cc2)COC1` (mixture of isomers) [Example 15, 8-((4-(Difluoromethoxy)phenyl)sulfonyl)-N-((3-methyloxetan-3-yl)methyl)-8-azabicyclo[3.2.1]octan-3-amine] had an IC50 of less than 50 nM.
As to `O=S(=O)(c1ccc(OC(F)F)cc1)N1C2CCC1CC(NC[C@H]1C[C@H]1CO)C2` (mixture of isomers) [Example 56, rac-((1R,2S)-2-(((8-((4-(Difluoromethoxy)phenyl)sulfonyl)-8-azabicyclo[3.2.1]octan-3-yl)amino)methyl)cyclopropyl)methanol], the concentration for half-maximal inhibition (IC50) was in the range of 150 to 2000 nM.
As to `CC(O)CCN[C@H]1C[C@H]2CC[C@@H](C1)N2S(=O)(=O)c1ccc(OC(F)F)cc1` (mixture of isomers) [Example 59, rac-4-(((1R,3r,5S)-8-((4-(difluoromethoxy)phenyl)sulfonyl)-8-azabicyclo[3.2.1]octan-3-yl)amino)butan-2-ol], the IC50 lay in the range of 50 to 150 nM.
Next, `CC(O)CCN[C@@H]1C[C@H]2CC[C@@H](C1)N2S(=O)(=O)c1ccc(OC(F)F)cc1` (mixture of isomers) [Example 60, rac-4-(((1R,3s,5S)-8-((4-(difluoromethoxy)phenyl)sulfonyl)-8-azabicyclo[3.2.1]octan-3-yl)amino)butan-2-ol]: 150 to 2000 nM; `Cc1nc(C(F)(F)F)ccc1S(=O)(=O)N1[C@@H]2CC[C@H]1C[C@H](N1CC3(COC3)C1)C2` (single isomer, unassigned) [Example 22]: less than 50 nM.
`Cc1nc(C(F)(F)F)ccc1S(=O)(=O)N1[C@@H]2CC[C@H]1C[C@@H](N1CC3(COC3)C1)C2` (single isomer, unassigned) [Example 23]: the IC50 was less than 50 nM.
Consider `Cc1nc(C(F)(F)F)ccc1S(=O)(=O)N1[C@@H]2CC[C@H]1C[C@H](NCC1CCOCC1)C2` (single isomer, unassigned) [Example 24], for which the IC50 is less than 50 nM.
For `Cc1nc(C(F)(F)F)ccc1S(=O)(=O)N1[C@@H]2CC[C@H]1C[C@@H](NCC1CCOCC1)C2` (single isomer, unassigned) [Example 25], the half-inhibitory concentration (IC50) is less than 50 nM.
Molecule `Cc1nc(C(F)(F)F)ccc1S(=O)(=O)N1[C@@H]2CC[C@H]1C[C@H](NCC1(C)COC1)C2` (single isomer, unassigned) [Example 26] gave an IC50 of less than 50 nM.
In turn, `Cc1nc(C(F)(F)F)ccc1S(=O)(=O)N1[C@@H]2CC[C@H]1C[C@@H](NCC1(C)COC1)C2` (single isomer, unassigned) [Example 27] yielded an IC50 of less than 50 nM.
The molecule `O=S(=O)(c1ccc(OC(F)F)cc1)N1C2CCC1CC(NCC1CC(O)C1)C2` (single isomer, unassigned) [Example 61] had an IC50 of 50 to 150 nM.
In turn, `O=S(=O)(c1ccc(OC(F)F)cc1)N1C2CCC1CC(NCC1CC(O)C1)C2` (single isomer, unassigned) [Example 62] showed an IC50 of 50 to 150 nM.
For `O=S(=O)(c1ccc(OC(F)F)cc1)N1[C@@H]2CC[C@H]1C[C@H](NC[C@H]1C[C@@H](O)C1)C2` (single isomer, unassigned) [Example 63] the value was 150 to 2000 nM; for `O=S(=O)(c1ccc(OC(F)F)cc1)N1[C@@H]2CC[C@H]1C[C@@H](NC[C@H]1C[C@@H](O)C1)C2` (single isomer, unassigned) [Example 64], 50 to 150 nM.
Take `Cc1nc(C(F)(F)F)ccc1S(=O)(=O)N1[C@@H]2CC[C@H]1C[C@H](NC1CC3(COC3)C1)C2` (single isomer, unassigned) [Example 68]: the IC50 was less than 50 nM.
Turning to `Cc1nc(C(F)(F)F)ccc1S(=O)(=O)N1[C@@H]2CC[C@H]1C[C@@H](NC1CC3(COC3)C1)C2` (single isomer, unassigned) [Example 69], the IC50 fell in the range of 50 to 150 nM.
The molecule `O=S(=O)(c1ccc(OC(F)F)cc1)N1[C@@H]2CC[C@H]1C[C@@H](NCC1(F)COC1)C2` (single isomer, unassigned) [Example 71] returned a half-maximal inhibitory concentration (IC50) of 150 to 2000 nM.

Usually IC50 stands for the concentration that gives 50% inhibition. Read a high IC50 as a need for much substance.
